# Assay results as given in patent US20220135571A1, “THERAPEUTIC EGFR INHIBITORS” (Hoffmann-La Roche Inc., priority 2019, published 2022).
# Where a name gives a salt, the structure may show the parent alone.
# What was measured:
# [1] = biological target: T1, EGFR TMLR (T790M/L858R), H1975 cell line (Homo sapiens, UniProt P00533, L858R/T790M); assay: HTRF Phospho EGFR TMLR Assay (Cellular); assay type: cell-based; details: H1975 cells, 16 hours compound incubation
# T1 construct: H1975 cell line (CRL-5908; Lot BA70803) was obtained from American Type Culture Collection; host or cells: H1975
# Description: HTRF Phospho EGFR TMLR Assay (Cellular)
# H1975 cell line (CRL-5908; Lot BA70803) was obtained from American Type Culture Collection (Manassas, Va., USA). Cells were maintained at 37° C., 5% CO2 in complete Media RPMI 1640 without phenol red containing 0.3 mg/ml glutamine, 100 IU/ml penicillin, and […] streptomycin (Gibco, 15140-122) supplemented with 10% fetal bovine serum (FBS, Gibco, 10091-148). Compounds were diluted into starving medium RPMI 1640 Media (Gibco, 11835-030) without phenol red containing 0.3 mg/ml glutamine, 100 IU/ml penicillin, and […] streptomycin (Gibco).
# Cells were cultured for 24 h in a 384-well plate (Greiner Bio-One, Nr. 784-080; 5000 cells/well) using 8 μl of complete medium/well. Then 4 µl/well of the 3× compound solution, containing a factor 3 dilution series of the compound or DMSO in starving medium, were added to the cells (final DMSO 0.33%). After 16 hours at 37° C., 5% CO2, 95% rel. humidity cells were lysed by adding to the compound mix 4 µl/well of the supplemented lysis buffer (Cis-bio, Phospho-EGFR HTRF kit, 64EG1PEH), followed by incubation for 30 min at room temperature with shaking (400 rpm). Then 4 μl of a mixture of anti-Phospho-EGFR Cryptate and of anti-Phospho-EGFR-d2 antibody solutions prepared in the detection buffer was added. The plates were then incubated for 4 h at room temperature before reading the fluorescence emission at 620 and 665 nm using an Envision reader (Perkin Elmer).
# [2] = biological target: T2, EGFR TMLRCS (T790M/L858R/C797S), BaF3-TMLRCS cell line (Homo sapiens, UniProt P00533, C797S/L858R/T790M); assay: HTRF Phospho EGFR TMLRCS Assay (Cellular); assay type: cell-based; details: BaF3-TMLRCS cells, 4 hours compound incubation
# T2 construct: host or cells: BaF3
# Description: HTRF Phospho EGFR TMLRCS Assay (Cellular)
# BaF3-TMLRCS cell line were obtained from Crownbio (San Diego, Calif., USA). Cells were maintained at 37° C., 5% CO2 in RPMI ATCC (Gibco 31870)+2 mM Glutamine+0.5 μg/ml Puromycin supplemented with 10% fetal bovine serum (FBS) (Gibco).
# Cells are transferred as above to Greiner Bio-One, Nr. 784-08 micro-titerplate at 20000 cells/well in 12.5 μl of growth medium/well after the plates had been pre-filled with 12.5 nl of DMSO solutions of the to be tested compounds (in dose response) or DMSO only. After spinning the plates at 300×g for 30 seconds the cells were incubated for 4 hours at 37 C, 5% CO2, 95% humidity. The cells were lysed by adding to the compound mix 4 µl/well of the supplemented lysis buffer (Cis-bio, Phospho-EGFR HTRF kit, 64EG1PEH), followed by incubation for 30 min at room temperature with shaking (400 rpm). The plates were then frozen and stored overnight at −80 C. On the next day and after thawing the plates, 4 μl of a mixture of anti-Phospho-EGFR Cryptate and of anti-Phospho-EGFR-d2 antibody solutions prepared in the supplied detection buffer was added to each well. The lidded plates were then incubated for 4 h at room temperature before reading the fluorescence emission at 616 and 665 nm using an Envision reader (Perkin Elmer). Data was analyzed in similar fashion as above using the normalized ratio of the 665 to 616 signals multiplied by 10000.
# T1 sequence (P00533 25-1210 T790M/L858R): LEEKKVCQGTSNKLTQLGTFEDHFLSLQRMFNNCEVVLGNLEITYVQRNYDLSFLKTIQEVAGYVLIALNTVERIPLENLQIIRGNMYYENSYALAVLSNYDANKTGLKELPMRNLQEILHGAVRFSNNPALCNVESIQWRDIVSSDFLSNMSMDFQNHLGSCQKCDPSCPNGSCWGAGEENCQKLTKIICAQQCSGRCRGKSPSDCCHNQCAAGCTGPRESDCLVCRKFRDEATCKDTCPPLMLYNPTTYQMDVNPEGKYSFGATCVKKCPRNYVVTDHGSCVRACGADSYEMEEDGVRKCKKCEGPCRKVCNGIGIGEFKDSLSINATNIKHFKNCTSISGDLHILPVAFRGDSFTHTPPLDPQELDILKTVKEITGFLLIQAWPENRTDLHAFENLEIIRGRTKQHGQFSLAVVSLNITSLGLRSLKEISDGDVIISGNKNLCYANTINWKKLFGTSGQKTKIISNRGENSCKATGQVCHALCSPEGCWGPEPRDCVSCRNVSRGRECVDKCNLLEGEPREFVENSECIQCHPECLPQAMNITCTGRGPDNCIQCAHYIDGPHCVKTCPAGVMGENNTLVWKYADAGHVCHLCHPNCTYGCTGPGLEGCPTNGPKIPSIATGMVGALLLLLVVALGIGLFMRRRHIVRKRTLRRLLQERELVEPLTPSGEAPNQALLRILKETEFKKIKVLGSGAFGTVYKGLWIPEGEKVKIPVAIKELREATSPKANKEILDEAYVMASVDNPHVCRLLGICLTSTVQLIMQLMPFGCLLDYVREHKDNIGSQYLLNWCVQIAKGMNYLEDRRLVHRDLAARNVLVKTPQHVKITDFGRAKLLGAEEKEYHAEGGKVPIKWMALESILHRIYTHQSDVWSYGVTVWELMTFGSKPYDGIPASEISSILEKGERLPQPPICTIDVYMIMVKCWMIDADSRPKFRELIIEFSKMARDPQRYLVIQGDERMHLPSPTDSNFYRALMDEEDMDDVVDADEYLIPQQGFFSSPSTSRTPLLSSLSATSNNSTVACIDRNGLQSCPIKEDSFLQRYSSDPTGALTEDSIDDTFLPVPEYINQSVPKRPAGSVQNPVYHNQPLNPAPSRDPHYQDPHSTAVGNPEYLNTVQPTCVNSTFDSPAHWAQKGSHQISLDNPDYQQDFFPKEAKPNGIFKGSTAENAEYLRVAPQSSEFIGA
# T2 sequence (P00533 25-1210 T790M/C797S/L858R): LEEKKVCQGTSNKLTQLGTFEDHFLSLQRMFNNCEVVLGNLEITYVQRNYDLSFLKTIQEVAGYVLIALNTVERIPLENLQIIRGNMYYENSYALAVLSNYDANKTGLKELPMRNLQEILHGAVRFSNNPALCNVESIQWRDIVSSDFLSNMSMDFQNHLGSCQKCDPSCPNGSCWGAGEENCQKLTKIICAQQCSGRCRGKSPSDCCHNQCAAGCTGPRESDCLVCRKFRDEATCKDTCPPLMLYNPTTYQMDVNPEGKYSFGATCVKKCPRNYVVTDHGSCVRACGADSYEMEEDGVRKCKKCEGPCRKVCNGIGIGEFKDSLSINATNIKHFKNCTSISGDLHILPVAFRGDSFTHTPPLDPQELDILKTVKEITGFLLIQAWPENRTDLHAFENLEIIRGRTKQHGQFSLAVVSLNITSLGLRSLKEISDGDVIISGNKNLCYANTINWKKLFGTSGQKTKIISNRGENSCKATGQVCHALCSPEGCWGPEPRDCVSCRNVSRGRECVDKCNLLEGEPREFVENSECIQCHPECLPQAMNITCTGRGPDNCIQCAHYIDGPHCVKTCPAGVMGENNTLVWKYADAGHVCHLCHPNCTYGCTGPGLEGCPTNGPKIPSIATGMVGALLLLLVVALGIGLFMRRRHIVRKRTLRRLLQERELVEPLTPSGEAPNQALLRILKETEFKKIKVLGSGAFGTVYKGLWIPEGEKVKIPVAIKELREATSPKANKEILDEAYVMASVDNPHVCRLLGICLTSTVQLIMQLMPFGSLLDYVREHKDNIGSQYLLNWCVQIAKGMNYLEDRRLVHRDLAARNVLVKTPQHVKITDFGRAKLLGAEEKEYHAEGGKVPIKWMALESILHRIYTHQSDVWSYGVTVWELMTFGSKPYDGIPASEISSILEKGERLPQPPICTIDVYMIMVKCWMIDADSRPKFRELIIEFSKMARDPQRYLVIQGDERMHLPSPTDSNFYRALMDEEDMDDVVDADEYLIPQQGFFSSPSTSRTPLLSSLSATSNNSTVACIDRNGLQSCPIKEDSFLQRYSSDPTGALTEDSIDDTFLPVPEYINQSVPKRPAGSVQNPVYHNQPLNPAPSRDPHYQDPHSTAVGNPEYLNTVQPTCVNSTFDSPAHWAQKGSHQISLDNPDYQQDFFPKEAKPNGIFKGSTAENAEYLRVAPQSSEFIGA
SMILES,IC50 [1] [nM],IC50 [2] [nM]
"O=C(Nc1nccs1)C(c1ncn2c1C[C@@H](F)C2)n1cc2c(F)cc(-c3ccc(N4CCNCC4)c(Cl)c3)cc2n1 (stereo partly drawn) [Example 6, 2-(6-(3-Chloro-4-(piperazin-1-yl)phenyl)-4-fluoro-2H-indazol-2-yl)-2-((R)-6-fluoro-6,7-dihydro-5H-pyrrolo[1,2-c]imidazol-1-yl)-N-(thiazol-2-yl)acetamide hydrochloride]",3,–
"CN1C(=O)CCc2cc(-c3cc(Cl)c4cn(C(C(=O)Nc5nccs5)c5ncn6c5CCC6)nc4c3F)ccc21 (stereo not drawn) [Example 18, 2-(4-Chloro-7-fluoro-6-(1-methyl-2-oxo-1,2,3,4-tetrahydroquinolin-6-yl)-2H-indazol-2-yl)-2-(6,7-dihydro-5H-pyrrolo[1,2-c]imidazol-1-yl)-N-(thiazol-2-yl)acetamide]",1,–
"CC(C)n1ccc(-c2cc(Cl)c3cn(C(C(=O)Nc4nccs4)c4ncn5c4CCC5)nc3c2F)cc1=O (stereo not drawn) [Example 23, 2-(4-Chloro-7-fluoro-6-(1-isopropyl-2-oxo-1,2-dihydropyridin-4-yl)-2H-indazol-2-yl)-2-(6,7-dihydro-5H-pyrrolo[1,2-c]imidazol-1-yl)-N-(thiazol-2-yl)acetamide]",1,–
"O=C(Nc1nccs1)C(c1ncn2c1CCC2)n1cc2c(Cl)cc(-c3ccc(N4CCNCC4)c(Cl)c3)cc2n1 (stereo not drawn) [Example 3, 2-(4-Chloro-6-(3-chloro-4-(piperazin-1-yl)phenyl)-2H-indazol-2-yl)-2-(6,7-dihydro-5H-pyrrolo[1,2-c]imidazol-1-yl)-N-(thiazol-2-yl)acetamide hydrochloride]",9,–
"CC(=O)N1CCN(c2ccc(-c3cc(Cl)c4cn(C(C(=O)Nc5nccs5)c5ncn6c5CCC6)nc4c3)cc2)CC1 (stereo not drawn) [Example 2, 2-(6-(4-(4-Acetylpiperazin-1-yl)phenyl)-4-chloro-2H-indazol-2-yl)-2-(6,7-dihydro-5H-pyrrolo[1,2-c]imidazol-1-yl)-N-(thiazol-2-yl)acetamide]",0.4,5
"CC(=O)N1CCN(c2ccc(-c3cc(F)c4cn(C(C(=O)Nc5nccs5)c5ncn6c5C[C@@H](F)C6)nc4c3)cc2Cl)CC1 (stereo partly drawn) [Example 7, 2-(6-(4-(4-Acetylpiperazin-1-yl)-3-chlorophenyl)-4-fluoro-2H-indazol-2-yl)-2-((R)-6-fluoro-6,7-dihydro-5H-pyrrolo[1,2-c]imidazol-1-yl)-N-(thiazol-2-yl)acetamide]",1,–
"O=C(Nc1nccs1)C(c1ncn2c1CCC2)n1cc2c(Cl)cc(-c3ccc(N4CCNCC4)cc3)cc2n1 (stereo not drawn) [Example 1, 2-(4-Chloro-6-(4-(piperazin-1-yl)phenyl)-2H-indazol-2-yl)-2-(6,7-dihydro-5H-pyrrolo[1,2-c]imidazol-1-yl)-N-(thiazol-2-yl)acetamide hydrochloride]",3,7

# Second part, the compound after the results:
IC50 [1] [nM],IC50 [2] [nM],SMILES
1,–,"CC(=O)N1CCN(c2ccc(-c3cc(Cl)c4cn(C(C(=O)Nc5nccs5)c5ncn6c5CCC6)nc4c3Cl)cc2)CC1 (stereo not drawn) [Example 12, 2-(6-(4-(4-Acetylpiperazin-1-yl)phenyl)-4,7-dichloro-2H-indazol-2-yl)-2-(6,7-dihydro-5H-pyrrolo[1,2-c]imidazol-1-yl)-N-(thiazol-2-yl)acetamide]"
2,–,"CCN1CCN(c2ccc(-c3cc(Cl)c4cn(C(C(=O)Nc5nccs5)c5ncn6c5CCC6)nc4c3F)cc2)CC1 (stereo not drawn) [Example 16, 2-(4-Chloro-6-(4-(4-ethylpiperazin-1-yl)phenyl)-7-fluoro-2H-indazol-2-yl)-2-(6,7-dihydro-5H-pyrrolo[1,2-c]imidazol-1-yl)-N-(thiazol-2-yl)acetamide]"
5,–,"COc1c(-c2ccc(C3CCN(C4CC4)CC3)cc2)cc(Cl)c2cn(C(C(=O)Nc3nccs3)c3ncn4c3C[C@@H](F)C4)nc12 (mixture of isomers) [Example 22, 2-[4-Chloro-6-[4-(1-cyclopropylpiperidin-4-yl)phenyl]-7-methoxyindazol-2-yl]-2-[rac-(6R)-6-fluoro-6,7-dihydro-5H-pyrrolo[1,2-c]imidazol-1-yl]-N-(1,3-thiazol-2-yl)acetamide]"
2,–,"O=C(Nc1nccs1)C(c1ncn2c1CCC2)n1cc2c(Cl)cc(-c3ccc(N4CCNCC4)cc3)c(F)c2n1 (stereo not drawn) [Example 15, 2-(4-Chloro-7-fluoro-6-(4-(piperazin-1-yl)phenyl)-2H-indazol-2-yl)-2-(6,7-dihydro-5H-pyrrolo[1,2-c]imidazol-1-yl)-N-(thiazol-2-yl)acetamide hydrochloride]"
1,–,"COc1c(-c2ccc3c(c2)CCC(=O)N3C)cc(Cl)c2cn(C(C(=O)Nc3nccs3)c3ncn4c3C[C@@H](F)C4)nc12 (mixture of isomers) [Example 20, 2-[4-Chloro-7-methoxy-6-(1-methyl-2-oxo-3,4-dihydroquinolin-6-yl)indazol-2-yl]-2-[rac-(6R)-6-fluoro-6,7-dihydro-5H-pyrrolo[1,2-c]imidazol-1-yl]-N-(1,3-thiazol-2-yl)acetamide]"
1,11,"CCN1CCN(c2ccc(-c3cc(Cl)c4cn(C(C(=O)Nc5nccs5)c5ncn6c5CCC6)nc4c3Cl)cc2)CC1 (stereo not drawn) [Example 13, 2-(4,7-Dichloro-6-(4-(4-ethylpiperazin-1-yl)phenyl)-2H-indazol-2-yl)-2-(6,7-dihydro-5H-pyrrolo[1,2-c]imidazol-1-yl)-N-(thiazol-2-yl)acetamide]"
5,–,"CCN1CCN(c2ccc(-c3cc(F)c4cn(C(C(=O)Nc5nccs5)c5ncn6c5C[C@@H](F)C6)nc4c3)cc2Cl)CC1 (stereo partly drawn) [Example 8, 2-(6-(3-Chloro-4-(4-ethylpiperazin-1-yl)phenyl)-4-fluoro-2H-indazol-2-yl)-2-((R)-6-fluoro-6,7-dihydro-5H-pyrrolo[1,2-c]imidazol-1-yl)-N-(thiazol-2-yl)acetamide]"
3,–,"CCN1CCN(c2ccc(-c3cc(Cl)c4cn(C(C(=O)Nc5nccs5)c5ncn6c5C[C@@H](F)C6)nc4c3OC)cc2)CC1 (mixture of isomers) [Example 21, 2-[4-Chloro-6-[4-(4-ethylpiperazin-1-yl)phenyl]-7-methoxyindazol-2-yl]-2-[rac-(6R)-6-fluoro-6,7-dihydro-5H-pyrrolo[1,2-c]imidazol-1-yl]-N-(1,3-thiazol-2-yl)acetamide]"
2,–,"O=C(Nc1nccs1)C(c1ncn2c1CCC2)n1cc2c(Cl)cc(-c3ccc(N4CCNCC4)cc3)c(Cl)c2n1 (stereo not drawn) [Example 9, 2-(4,7-Dichloro-6-(4-(piperazin-1-yl)phenyl)-2H-indazol-2-yl)-2-(6,7-dihydro-5H-pyrrolo[1,2-c]imidazol-1-yl)-N-(thiazol-2-yl)acetamide hydrochloride]"
11,14,"CCN1CCN(c2ccc(-c3cc(Cl)c4cn(C(C(=O)Nc5nccs5)c5ncn6c5CCC6)nc4c3)cc2Cl)CC1 (stereo not drawn) [Example 4, 2-(4-Chloro-6-(3-chloro-4-(4-ethylpiperazin-1-yl)phenyl)-2H-indazol-2-yl)-2-(6,7-dihydro-5H-pyrrolo[1,2-c]imidazol-1-yl)-N-(thiazol-2-yl)acetamide]"
